Assay results taken from publication PMC7284870, “Antimicrobial Peptides from Rat-Tailed Maggots of the Drone Fly Eristalis tenax Show Potent Activity against Multidrug-Resistant Gram-Negative Bacteria” (Microorganisms, 2020).
Converted amounts (≈) assume the structure as drawn. Where two headings read alike, the source gives them in different places. Residues, ends and D or L forms follow the SMILES beside them. No end group written: not given here.

Key:
[1] = tested on: S. aureus ATCC 33592; type: cell-based, Staphylococcus aureus
Procedure: (§1) The strains that were used in this study (Table 2 and Table S1) were cultivated at 37 °C in cation-adjusted Mueller–Hinton broth (CAMB) in Erlenmeyer flasks, or on the same medium with agar in Petri dishes. Exceptionally, Mycobacterium smegmatis was cultivated at 37 °C in brain heart infusion (BHI) medium that was supplemented with 1% Tween-80 in Erlenmeyer flasks, or on the same medium lacking detergent but with agar in Petri dishes. Strains listed with Robert Koch Institute (RKI) strain numbers are clinical isolates from the RKI strain collection originating from hospitalized patients in Germany. The remaining strains originated from the Sanofi strain collection and they were originally purchased from the American Type Culture Collection or the German Collection of Microorganisms and Cell Cultures. Meropenem/colistin-resistant strains were maintained, as described above, with the appropriate antibiotic added at levels below the minimal inhibitory concentration (MIC).
(§2) The MIC values were determined in 384-well microtiter plates with an assay volume of 20 µL. Immediately before each assay, the cultures of test organisms (bacteria grown for 18 h, Candida albicans and M. smegmatis grown for 48 h) were diluted with the appropriate medium to a density of 1 × 10^6 cells/mL (C. albicans), 1 × 10^5 cells/mL (M. smegmatis) or 5 × 10^5 cells per mL (other species). […] We transferred 2-µL aliquots from this dilution series to new 384-well microtiter plates while using a CyBio-Well 384-channel automated pipettor (Analytic Jena, Jena, Germany) and added 18 µL of the diluted suspension of each test species using a Viafill reagent dispenser (Integra), thus reducing the final peptide concentration 10-fold to the range 1024–0.03125 µg/mL. […] The growth of M. smegmatis was measured using the BacTiter-Glo luminescence test system (Promega, Madison, WI, USA). The growth of the other species was determined by visual inspection of the microtiter plate and turbidimetry based on the optical density at 600 nm (OD600). The MIC was defined as the peptide concentration at which no bacterial growth was observed. We supplemented the test medium with either 150 mM NaCl or 1.25 mM CaCl2 to represent monovalent and divalent cations to simulate physiological conditions.

[2] = tested on: E. coli RKI 131/08; experiment: microbe, parasite or virus in culture; type: cell-based, Escherichia coli; conditions: RKI 131/08, 18 h
Procedure: as §1, §2

[3] = tested on: K. pneumoniae RKI 93/10; experiment: microbe, parasite or virus in culture; type: cell-based, Klebsiella pneumoniae; conditions: RKI 93/10, 18 h
Procedure: as §1, §2

[4] = tested on: A. baumannii RKI 19/09; experiment: microbe, parasite or virus in culture; type: cell-based, Acinetobacter baumannii; conditions: RKI 19/09, 18 h
Procedure: as §1, §2

[5] = tested on: Acinetobacter baumannii ATCC 19606; type: cell-based
Procedure: as §1, §2

[6] = tested on: Escherichia coli D31; type: cell-based; conditions: D31, 18 h
Procedure: as §1, §2

[7] = tested on: Klebsiella pneumoniae DSM 30104; type: cell-based
Procedure: as §1, §2

[8] = tested on: Pseudomonas aeruginosa ATCC 27853; type: cell-based
Procedure: as §1, §2

[9] = tested on: Staphylococcus aureus ATCC 25923; type: cell-based
Procedure: as §1, §2

[10] = tested on: HepG2 cells; experiment: Cytotoxicity (ATP quantification and neutral red uptake)
Procedure: The cytotoxicity of the AMPs was determined in 96-well microtiter plates with an assay volume of 200 µL. The peptides were dissolved in PBS and a 1:2 dilution series in DMEM-F12 medium (supplemented with 1% nonessential amino acids, 1% sodium pyruvate, and 5% heat-inactivated fetal calf serum) was prepared in nine steps to produce test concentrations of 400, 200, 100, […], 12.5, 6.25, 3.13, and 1.56 μM (1655–6.46 µg/mL for EtCec1-a, 1713–6.68 µg/mL for EtCec2-a, 1622–6.33 µg/mL for EtCec3-a, 2661–10.38 µg/mL for EtDip). Stocks of the mycoplasma-free HepG2 cell line HB-8065 (ATCC) stored in liquid nitrogen were seeded at a density of 20,000 cells/well into 96-well microplates in 100 μL DMEM-F12 supplemented as above. After incubation overnight at 37 ± 1 °C in a 5% CO2 atmosphere, 100 μL of the test solution was added per well in six replicates. Ketoconazole was used as a positive control and PBS as a negative control. The plates were incubated for 24 h, as above, and the cell viability was assessed using the luminescent CellTiter-Glo ATP monitoring kit (Promega) to determine the quantity of ATP.
HepG2 cells and peptides were prepared as described above, and cell viability was assessed based on the ability of lysosomes to store the dye neutral red (Sigma–Aldrich, ST. Louis, MO, USA). The cells were incubated for 3 h with a neutral red solution, washed twice, and lysed. After complete lysis, the quantity of neutral red was determined by measuring the absorption at 540 nm while using a Tecan Genios Pro plate reader.

[11] = target: human ERG (hERG) potassium channel (Homo sapiens, UniProt Q12809); experiment: cell-based
Procedure: The interaction of the peptides with the human ERG (hERG) potassium channel was analyzed using the automated patch-clamp method. Chinese hamster ovary (CHO) hERG Duo cells constitutively expressing hERG (B’SYS) were diluted to 8 × 10^6 cells/mL in Ex-Cell CHO medium (Sigma–Aldrich) containing 25 mM HEPES, 100 U/mL penicillin-streptomycin, and 0.004% soybean trypsin inhibitor. The peptides were diluted from a stock concentration of 10 mM in DMSO to final concentrations of 0.12, 0.37, 1.1, 3.3, 10, and 30 μM (0.5–124 µg/mL for […], 0.51–128 µg/mL for EtCec2-a, 0.49–122 µg/mL for EtCec3-a, 0.8–200 µg/mL for EtDip) in extracellular medium (150 mM NaCl, 4 mM KCl, 2 mM CaCl2, 1 mM MgCl2, 10 mM HEPES, 10 mM glucose) containing 0.06% Pluronic F-68 and 0.3% residual DMSO. The response of hERG to each peptide was assessed while using a QPatch HTX station and QPlates (Sophion/Biolin Scientific, Ballerup, Denmark) by recording the tail current following channel repolarization. Half-maximal inhibitory concentrations (IC50) were determined from a series of six concentrations applied to the cells in ascending order. Terfenadine citrate was used as a positive control and extracellular medium as a negative control.

[12] = tested on: Micrococus luteus DSM 20030; type: cell-based, Micrococcus luteus; conditions: CAMB, 18 h, 37 °C, n = 4
Procedure: as §1
The MIC values were determined in 384-well microtiter plates with an assay volume of 20 µL. […] The growth of M. smegmatis was measured using the BacTiter-Glo luminescence test system (Promega, Madison, WI, USA). The growth of the other species was determined by visual inspection of the microtiter plate and turbidimetry based on the optical density at 600 nm (OD600). […]

[13] = tested on: E. coli ATCC 25922
Procedure: as §1
The MIC values were determined in 384-well microtiter plates with an assay volume of 20 µL. Immediately before each assay, the cultures of test organisms (bacteria grown for 18 h, Candida albicans and M. smegmatis grown for 48 h) were diluted with the appropriate medium to a density of 1 × 10^6 cells/mL (C. albicans), 1 × 10^5 cells/mL (M. smegmatis) or 5 × 10^5 cells per mL (other species). The peptides were dissolved in sterile water at a concentration of 10.24 mg/mL and a 1:2 dilution series was prepared in a 384-well microtiter plate to achieve the concentration range 10,240–0.3125 µg/mL in a volume of 50 µL. We transferred 2-µL aliquots from this dilution series to new 384-well microtiter plates while using a CyBio-Well 384-channel automated pipettor (Analytic Jena, Jena, Germany) and added 18 µL of the diluted suspension of each test species using a Viafill reagent dispenser (Integra), thus reducing the final peptide concentration 10-fold to the range 1024–0.03125 µg/mL. The cells were incubated at 37 °C and 85% relative humidity, shaking at 180 rpm for 48 h (M. smegmatis), 24 h (C. albicans) or 18 h (other species). The growth of M. smegmatis was measured using the BacTiter-Glo luminescence test system (Promega, Madison, WI, USA). The growth of the other species was determined by visual inspection of the microtiter plate and turbidimetry based on the optical density at 600 nm (OD600). […] We supplemented the test medium with either 150 mM NaCl or 1.25 mM CaCl2 to represent monovalent and divalent cations to simulate physiological conditions.

[14] = tested on: Canida albicans FH2173; type: cell-based, Candida albicans; conditions: CAMB, 24 h, 37 °C, n = 4
Procedure: as §1, §2

[15] = tested on: Enterococcus faecium DSM 17050; type: cell-based; conditions: CAMB, 18 h, 37 °C, n = 4
Procedure: as §1, §2

[16] = tested on: Listeria monocytogenes DSM 20600; type: cell-based; conditions: CAMB, 18 h, 37 °C, n = 4
Procedure: as §1, §2

[17] = tested on: Mycobacterium smegmatis ATCC 607; type: cell-based; conditions: BHI, 48 h, 37 °C, BacTiter-Glo, n = 4
Procedure: as §1, §2

[18] = tested on: Proteus mirabilis DSM 4479; type: cell-based; conditions: CAMB, 18 h, 37 °C, n = 4
Procedure: as §1, §2

[19] = tested on: Staphylococcus epidermidis ATCC 35984; type: cell-based; conditions: CAMB, 18 h, 37 °C, n = 4
Procedure: as §1, §2

human ERG (hERG) potassium channel, sequence (Q12809 whole entry): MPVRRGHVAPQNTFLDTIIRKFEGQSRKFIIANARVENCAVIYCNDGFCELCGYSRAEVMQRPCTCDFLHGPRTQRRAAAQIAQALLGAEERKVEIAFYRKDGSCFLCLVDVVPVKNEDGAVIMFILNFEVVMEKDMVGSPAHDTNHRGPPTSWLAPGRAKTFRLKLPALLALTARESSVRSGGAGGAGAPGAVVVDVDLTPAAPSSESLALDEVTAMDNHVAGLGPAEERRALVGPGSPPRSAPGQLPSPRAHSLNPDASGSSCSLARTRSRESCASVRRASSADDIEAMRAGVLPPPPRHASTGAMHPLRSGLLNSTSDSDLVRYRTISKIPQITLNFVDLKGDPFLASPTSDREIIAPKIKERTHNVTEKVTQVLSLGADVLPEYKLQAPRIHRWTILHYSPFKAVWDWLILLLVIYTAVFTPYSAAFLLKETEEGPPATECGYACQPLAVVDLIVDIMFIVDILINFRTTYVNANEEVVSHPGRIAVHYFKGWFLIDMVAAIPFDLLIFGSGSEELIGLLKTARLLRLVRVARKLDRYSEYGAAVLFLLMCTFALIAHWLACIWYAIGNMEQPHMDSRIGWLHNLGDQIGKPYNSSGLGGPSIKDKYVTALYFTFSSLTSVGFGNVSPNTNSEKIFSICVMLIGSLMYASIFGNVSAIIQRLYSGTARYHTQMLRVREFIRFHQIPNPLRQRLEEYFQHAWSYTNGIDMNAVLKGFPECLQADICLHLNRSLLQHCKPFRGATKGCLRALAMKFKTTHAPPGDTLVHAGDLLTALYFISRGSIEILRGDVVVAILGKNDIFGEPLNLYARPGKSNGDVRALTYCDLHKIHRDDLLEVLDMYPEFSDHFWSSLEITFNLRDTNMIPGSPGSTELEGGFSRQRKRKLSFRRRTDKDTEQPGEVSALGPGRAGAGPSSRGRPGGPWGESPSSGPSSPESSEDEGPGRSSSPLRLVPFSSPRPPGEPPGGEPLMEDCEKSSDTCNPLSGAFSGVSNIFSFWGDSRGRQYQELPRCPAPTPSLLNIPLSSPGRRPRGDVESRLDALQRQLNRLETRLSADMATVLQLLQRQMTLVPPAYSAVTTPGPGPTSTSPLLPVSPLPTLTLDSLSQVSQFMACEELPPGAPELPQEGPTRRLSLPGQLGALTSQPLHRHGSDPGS

GFLKKVGKKLEGASDLTRDATIQTIAVAQAAANVAATAKQ-NH2 [EtCec3-NH2]
MIC ([1]; ATCC 33592, 18 h): >1024 µg/mL | MIC [2]: >1024 µg/mL | MIC [3]: >1024 µg/mL | MIC [4]: >1024 µg/mL | MIC ([5]; ATCC 19606, 18 h): >1024 µg/mL | MIC [6]: 128 µg/mL | MIC ([7]; DSM 30104, 18 h): >1024 µg/mL | MIC ([8]; ATCC 27853, 18 h): >1024 µg/mL | MIC ([9]; ATCC 25923, 18 h): >1024 µg/mL | NOEC [10]: > 1622 µg/mL | IC50 [11]: > 30 µM

CC(C)C[C@@H]1NC(=O)[C@@H]2CSSC[C@@H](C(=O)N[C@@H](CCCNC(=N)N)C(=O)N[C@@H](CCCCN)C(=O)O)NC(=O)[C@H](CC(N)=O)NC(=O)[C@@H]3CSSC[C@H](NC(=O)[C@H](C)NC(=O)[C@H](C)NC(=O)[C@H](CC(=O)O)NC(=O)[C@H](CCCCN)NC(=O)[C@H](C(C)C)NC(=O)[C@H](CC(N)=O)NC(=O)[C@H](CC(C)C)NC(=O)[C@H](Cc4ccccc4)NC(=O)[C@H](CO)NC(=O)[C@H](CC(C)C)NC(=O)[C@H](CC(C)C)NC(=O)[C@H](CC(=O)O)NC(=O)[C@@H](NC(=O)[C@@H](NC(=O)[C@H](C)N)[C@@H](C)O)CSSC[C@H](NC(=O)[C@H](Cc4ccc(O)cc4)NC(=O)CNC(=O)CNC(=O)[C@H](CCCNC(=N)N)NC(=O)[C@H](Cc4ccc(O)cc4)NC(=O)CNC(=O)[C@H](CCCCN)NC(=O)[C@H](C)NC1=O)C(=O)N[C@@H](CC(=O)O)C(=O)NCC(=O)N[C@@H](CCCNC(=N)N)C(=O)N[C@@H](CCCCN)C(=O)N[C@@H](C(C)C)C(=O)N3)C(=O)N[C@@H](C)C(=O)N[C@@H](C)C(=O)N[C@@H](Cc1c[nH]cn1)C(=O)N2 [EtDef4] (HELM PEPTIDE1{A.T.C.D.L.L.S.F.L.N.V.K.D.A.A.C.A.A.H.C.L.A.K.G.Y.R.G.G.Y.C.D.G.R.K.V.C.N.C.R.K}$PEPTIDE1,PEPTIDE1,3:R3-30:R3|PEPTIDE1,PEPTIDE1,16:R3-36:R3|PEPTIDE1,PEPTIDE1,20:R3-38:R3$$$V2.0)
MIC ([1]; CAMB, 18 h, 37 °C, n = 4): 16 µg/mL (≈ 3.73 µM) | MIC [12]: 16 µg/mL (≈ 3.73 µM) | MIC ([13]; CAMB + A000160918 [4 µg/mL]): 32 µg/mL | MIC ([13]; CAMB + A000161246 [4 µg/mL]): 128 µg/mL | MIC ([13]; CAMB + A000173031A [4 µg/mL]): 16 µg/mL | MIC ([13]; CAMB + A000173033A [4 µg/mL]): 256 µg/mL | MIC ([13]; CAMB + A000173039A [0.25 µg/mL]): 64 µg/mL | MIC ([13]; CAMB + A000173380A [4 µg/mL]): 256 µg/mL | MIC ([13]; CAMB + A000498432A [4 µg/mL]): >256 µg/mL | MIC ([13]; CAMB + A000499933A [0.0625 µg/mL]): >256 µg/mL | MIC ([13]; CAMB + A000500059A [0.0625 µg/mL]): >256 µg/mL | MIC ([13]; CAMB + A000500146A [0.0625 µg/mL]): 4 µg/mL | MIC ([13]; CAMB + A000501181A [4 µg/mL]): >256 µg/mL | MIC ([13]; CAMB + Colistin E1 [0.016 µg/mL]): 8 µg/mL | MIC ([13]; CAMB + Colistin E2 [0.016 µg/mL]): 2 µg/mL | MIC ([13]; CAMB + PMB [0.016 µg/mL]): 2 µg/mL | MIC ([13]; CAMB + PMBN [4 µg/mL]): >256 µg/mL | MIC ([13]; CAMB, 18 h, 37 °C, n = 4): >128 µg/mL | MIC ([13]; Table 6, CAMB): >256 µg/mL | MIC [14]: >128 µg/mL | MIC ([5]; CAMB, 18 h, 37 °C, n = 4): >128 µg/mL | MIC [15]: >128 µg/mL | MIC ([7]; CAMB, 18 h, 37 °C, n = 4): >128 µg/mL | MIC [16]: 16 µg/mL (≈ 3.73 µM) | MIC [17]: 32 µg/mL (≈ 7.46 µM) | MIC [18]: >128 µg/mL | MIC ([8]; CAMB, 18 h, 37 °C, n = 4): >128 µg/mL | MIC ([9]; CAMB, 18 h, 37 °C, n = 4): 16 µg/mL (≈ 3.73 µM) | MIC [19]: >128 µg/mL
